# ChEMBL document CHEMBL1201862, “PubChem BioAssay data set” (2004)
# Calls of active or inactive are those of the source.
# Assays:
# [1] = inhibitors of clade B AD8 Env fusion, dose response, cell-based, cherry-pick (AID 652062); assay type: functional;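 further: luciferase signal from cell-cell fusion driven by HIV-1 clade B AD8 Env; potency is for inhibitors of fusion seen as a drop in luminescence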
# [2] = inhibitors of HIV Env-driven cell fusion, dose response, cherry-pick (AID 652057); assay type: functional, cell-based
# [3] = ZM109 Env clade C HIV-1 fusion inhibitors, dose response, HeLa effector, CEM target cells, luciferase, cherry-pick (AID 652058); assay type: functional, cell-based
# [4] = P. falciparum Dd2 growth inhibitors, dose response, SYBR Green, cherry-picked samples (AID 1159567); assay type: functional, cell-based
# [5] = molecular target: T1, Calpain-2 catalytic subunit (Sus scrofa, UniProt P43367); experiment: pig calpain II inhibitor potency, dose response, biochemical, fluorogenic peptide substrate (AID 1420); assay type: functional
# T1 sequence (P43367 whole entry): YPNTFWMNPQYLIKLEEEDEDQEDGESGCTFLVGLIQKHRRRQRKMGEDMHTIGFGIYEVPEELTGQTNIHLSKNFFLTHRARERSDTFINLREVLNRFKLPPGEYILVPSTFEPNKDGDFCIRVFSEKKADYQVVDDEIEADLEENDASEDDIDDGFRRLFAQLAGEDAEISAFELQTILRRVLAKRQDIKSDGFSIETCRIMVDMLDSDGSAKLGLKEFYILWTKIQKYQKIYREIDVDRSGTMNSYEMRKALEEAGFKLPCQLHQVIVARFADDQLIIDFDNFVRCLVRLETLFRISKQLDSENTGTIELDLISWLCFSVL
# [6] = inhibitors of intracellular T. cruzi replication, confirmation, NIH3T3 host cells, beta-gal luminescence (AID 2044); assay type: functional, cell-based;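 further: intracellular parasites grown in NIH/3T3 mouse fibroblasts as host cells; luminescent beta-galactosidase reporter signal from transgenic T. cruzi replicating inside host cells; inhibitors lower the luminescence signal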
# Streptokinase A = molecular target: T2, Streptokinase A (Streptococcus pyogenes serotype M1, UniProt P10520); experiment: S. pyogenes streptokinase expression inhibitors, potency, dose response, plasminogen activation absorbance, OD405 (AID 1914); assay type: functional, Streptococcus pyogenes M1 GAS;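 further: secreted streptokinase activity via plasminogen activation per viability signal from cell pellet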
# T2 sequence (P10520 whole entry): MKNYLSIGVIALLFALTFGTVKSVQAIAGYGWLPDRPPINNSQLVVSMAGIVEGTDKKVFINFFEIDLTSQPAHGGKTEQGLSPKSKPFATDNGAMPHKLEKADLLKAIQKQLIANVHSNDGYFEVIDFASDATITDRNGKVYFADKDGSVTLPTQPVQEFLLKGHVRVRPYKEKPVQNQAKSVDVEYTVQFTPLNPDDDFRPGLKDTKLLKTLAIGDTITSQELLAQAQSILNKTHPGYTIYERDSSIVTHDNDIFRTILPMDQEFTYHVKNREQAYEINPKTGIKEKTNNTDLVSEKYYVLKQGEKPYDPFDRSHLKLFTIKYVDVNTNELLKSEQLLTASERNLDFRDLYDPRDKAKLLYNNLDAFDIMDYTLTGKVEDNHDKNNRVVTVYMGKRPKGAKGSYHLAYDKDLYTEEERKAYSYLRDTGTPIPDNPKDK
# [7] = tested on: Streptococcus sp. 'group A'; experiment: growth inhibition of control SK(-) GAS strain, dose response, counter-screen for streptokinase expression inhibitor project, luminescence, kanamycin, BacTiterGlo, confirmation (AID 1900); assay type: functional, organism-based
# Streptococcus = experiment: Group A Streptococcus viability loss, dose response, counter-screen for streptokinase expression inhibitor project, luminescence, BacTiterGlo (AID 1915); assay type: functional, organism-based;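 further: potency for reduction of bacterial viability or growth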
# [8] = cytotoxicity toward NIH3T3 fibroblasts, dose response, counter-screen, cell-based, ATP luminescence, mouse fibroblasts (AID 2010); assay type: functional;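 further: cells exposed to compound for about 90 hours before reading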
# Genome polyprotein = Genome polyprotein (dengue virus type 2, UniProt P29990); experiment: Dengue-2 NS5 methyltransferase inhibitors, primary screen, biochemical, confirmation dose response (AID 588689); assay type: functional
# Paired box protein Pax-8 = Paired box protein Pax-8 (Homo sapiens, UniProt Q06710); experiment: inhibitors of PAX8-driven TPO luciferase reporter, dose response, RMG-I cells, cherry-pick (AID 687027); assay type: functional, cell-based;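 further: luciferase reporter driven by Pax8 target thyroperoxidase promoter measured by SteadyGlo luminescence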
# [9] = HEp-2 cell cytotoxicity, dose response, cytotoxicity control for RSV inhibitor project, HTS (AID 2410); assay type: functional; settings: human respiratory syncytial virus
# [10] = Luminescence Cell-Based Dose Retest to Confirm Inhibitors of Cancer Stem Cells. [Related pubchem assays (depositor defined):AID2717, AID2721]; assay type: functional; settings: Homo sapiens
# [11] = growth suppression of beta-catenin-knockout colon cells, dose response, cell-based, HCT116, human colon tumor (AID 1045); assay type: functional;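 further: HCT116 colon tumor cells with beta catenin knocked out; cells exposed to compound for 60 hours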
# [12] = growth suppression of PTEN-null colon cells, dose response, cell-based, HCT116 PTEN knockout (AID 1047); assay type: functional;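 further: HCT116 colon tumor cells with PTEN knocked out; cells exposed to compound for 60 hours before readout; potency for loss of cell viability measured by luminescence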
# [13] = molecular target: T3, Heat shock factor protein 1 (Mus musculus, UniProt P38532); experiment: HSF1 potentiators in luciferase reporter cells, confirmation, cell-based, NIH3T3, luminescence, dose retest (AID 435004); assay type: functional;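 further: stress induced by proteasome inhibitor MG132 added 30 min after compound; luciferase reporter driven by HSF1 response element in NIH3T3 cells; actives raise luminescence as potentiators of the MG132 stress response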
# T3 sequence (P38532 whole entry): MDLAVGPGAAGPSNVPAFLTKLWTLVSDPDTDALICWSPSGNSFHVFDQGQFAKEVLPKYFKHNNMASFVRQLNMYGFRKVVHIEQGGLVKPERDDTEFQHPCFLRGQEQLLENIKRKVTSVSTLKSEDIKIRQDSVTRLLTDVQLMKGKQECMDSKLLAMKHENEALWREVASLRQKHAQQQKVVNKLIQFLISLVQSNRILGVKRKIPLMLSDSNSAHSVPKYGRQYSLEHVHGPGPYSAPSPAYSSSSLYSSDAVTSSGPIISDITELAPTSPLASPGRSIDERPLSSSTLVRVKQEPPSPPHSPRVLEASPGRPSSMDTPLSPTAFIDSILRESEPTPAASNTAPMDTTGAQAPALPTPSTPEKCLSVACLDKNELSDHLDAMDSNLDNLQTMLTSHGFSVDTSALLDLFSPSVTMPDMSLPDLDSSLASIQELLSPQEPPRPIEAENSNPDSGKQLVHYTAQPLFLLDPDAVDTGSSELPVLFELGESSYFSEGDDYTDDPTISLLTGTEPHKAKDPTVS
# [14] = molecular target: Induced myeloid leukemia cell differentiation protein Mcl-1 (Homo sapiens, UniProt Q07820); assay type: functional
# Induced myeloid leukemia cell differentiation protein Mcl-1, sequence (Q07820 whole entry): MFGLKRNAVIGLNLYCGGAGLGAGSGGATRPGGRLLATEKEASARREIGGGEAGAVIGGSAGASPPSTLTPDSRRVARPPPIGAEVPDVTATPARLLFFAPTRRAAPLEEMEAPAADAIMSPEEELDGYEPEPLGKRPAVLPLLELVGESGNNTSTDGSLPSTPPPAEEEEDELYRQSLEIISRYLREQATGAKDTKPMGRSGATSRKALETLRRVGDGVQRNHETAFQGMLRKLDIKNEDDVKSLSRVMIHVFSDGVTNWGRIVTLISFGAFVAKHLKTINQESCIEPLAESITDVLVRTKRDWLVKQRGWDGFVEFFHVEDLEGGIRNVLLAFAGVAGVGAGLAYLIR
# Genome polyprotein, sequence (P29990 2492-3391 limits assumed): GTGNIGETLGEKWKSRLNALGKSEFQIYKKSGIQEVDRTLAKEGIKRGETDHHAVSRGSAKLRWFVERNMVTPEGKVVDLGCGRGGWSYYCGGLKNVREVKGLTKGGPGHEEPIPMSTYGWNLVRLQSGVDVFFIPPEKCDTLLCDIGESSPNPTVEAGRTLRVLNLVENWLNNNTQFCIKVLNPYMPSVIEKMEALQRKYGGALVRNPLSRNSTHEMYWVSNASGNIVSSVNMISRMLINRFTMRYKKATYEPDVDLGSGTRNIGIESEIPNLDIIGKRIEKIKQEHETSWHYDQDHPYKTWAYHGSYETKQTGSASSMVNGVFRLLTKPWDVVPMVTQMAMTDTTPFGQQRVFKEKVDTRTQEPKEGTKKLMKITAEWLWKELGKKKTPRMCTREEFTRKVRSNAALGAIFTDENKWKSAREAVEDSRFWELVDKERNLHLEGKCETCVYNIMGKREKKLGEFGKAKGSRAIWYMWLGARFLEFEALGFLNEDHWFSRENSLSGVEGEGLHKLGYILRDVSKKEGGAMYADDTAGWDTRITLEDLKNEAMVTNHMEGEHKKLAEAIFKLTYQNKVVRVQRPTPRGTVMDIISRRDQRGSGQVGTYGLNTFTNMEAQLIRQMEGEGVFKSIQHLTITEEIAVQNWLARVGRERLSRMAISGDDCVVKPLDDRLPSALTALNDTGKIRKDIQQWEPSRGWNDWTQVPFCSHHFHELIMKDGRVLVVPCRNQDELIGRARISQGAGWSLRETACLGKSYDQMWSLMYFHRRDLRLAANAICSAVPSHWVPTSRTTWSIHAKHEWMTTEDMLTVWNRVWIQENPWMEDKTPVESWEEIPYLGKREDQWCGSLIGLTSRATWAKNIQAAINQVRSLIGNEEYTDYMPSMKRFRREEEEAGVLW
# Paired box protein Pax-8, sequence (Q06710 whole entry): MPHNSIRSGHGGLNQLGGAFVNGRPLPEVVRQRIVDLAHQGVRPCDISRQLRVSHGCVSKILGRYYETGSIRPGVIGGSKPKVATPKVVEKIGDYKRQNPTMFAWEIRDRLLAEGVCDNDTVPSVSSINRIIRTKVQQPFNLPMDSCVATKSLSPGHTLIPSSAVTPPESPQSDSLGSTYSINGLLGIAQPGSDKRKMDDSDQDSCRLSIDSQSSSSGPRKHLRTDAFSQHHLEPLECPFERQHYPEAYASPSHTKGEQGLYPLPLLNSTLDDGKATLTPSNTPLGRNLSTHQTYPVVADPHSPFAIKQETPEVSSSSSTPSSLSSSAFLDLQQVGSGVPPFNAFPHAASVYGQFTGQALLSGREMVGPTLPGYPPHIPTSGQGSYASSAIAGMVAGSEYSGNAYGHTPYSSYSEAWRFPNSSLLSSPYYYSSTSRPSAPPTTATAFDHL
smiles,measurement,setting,value
Cc1noc(C)c1S(=O)(=O)N(C)C[C@@H]1Oc2ccc(NC(=O)NC3CCCCC3)cc2CC(=O)N([C@H](C)CO)C[C@@H]1C,AC50,[1],4.26 µM (active)
same,AC50,[2],5.98 µM (active)
same,AC50,[3],4.3 µM (active)
CN1c2ccc(C#Cc3cccnc3)cc2[C@@H]2[C@@H](CCN2C(=O)C2CCC2)[C@@H]1CO,AC50,[4],4.18 µM (active)
CC(CCc1ccccc1)NC(=O)CSc1cccc[n+]1[O-] (stereo unspecified),IC50,[5],44.7 µM (not active)
O=C1CC(C(=O)Nc2ccc(Cl)cc2)n2ncnc2N1 (stereo unspecified),IC50,[5],< 0.4 µM (not active)
CN1C(=O)/C(=C\c2ccccc2F)Sc2ccc(C(=O)NC3CCN(Cc4ccccc4)CC3)cc21,EC50,[6],0.243 µM (active)
same,EC50,Streptokinase A,> 150 µM (not active)
same,EC50,[7],7.12 µM (active)
same,EC50,Streptococcus,41.8 µM (active)
same,EC50,[8],> 60 µM (not active)
CC(C)c1ccc(-n2cccc2/C=C2/C(=N)N3C=CSC3=NC2=O)cc1,EC50,Streptokinase A,> 150 µM (not active)
same,EC50,[7],2.1 µM (active)
same,EC50,Streptococcus,14.7 µM (active)
O=C(NCCC1=CCCCC1)c1ccc2c(c1)N(Cc1ccccc1)C(=O)CS2,IC50,[5],5.5 µM (not active)
same,EC50,[6],2.88 µM (active)
same,EC50,[8],> 30 µM (not active)
O=C(O)c1ccc(N=N/C(=N\Nc2ccc(C(=O)O)cc2)c2ccccc2)cc1,IC50,Genome polyprotein,30.4 µM (active)
C[C@@H]1CN([C@@H](C)CO)C(=O)c2c(c3ccccc3n2C)-c2ccccc2CO[C@H]1CN(C)C(=O)Nc1ccc2c(c1)OCO2,AC50,Paired box protein Pax-8,5.68 µM (active)
CCCOc1ccc(/C=C2/C(=O)ON=C2C)cc1OCC,IC50,Genome polyprotein,29 µM (active)
COc1ccc(S(=O)(=O)Nc2ccc3c(c2)CC(=O)N([C@H](C)CO)C[C@H](C)[C@H](CN(C)S(=O)(=O)c2ccccc2)O3)cc1,AC50,[1],2.09 µM (active)
same,AC50,[2],< 0.26 µM (active)
O=C(Nc1nc(-c2ccccc2)cs1)C1CCCN(S(=O)(=O)c2ccccc2)C1 (stereo unspecified),EC50,[6],2.68 µM (active)
same,EC50,[8],> 30 µM (not active)
same,CC50,[9],2.26 µM (active)
C[C@H]1CN([C@@H](C)CO)C(=O)c2cccc(NC(=O)Nc3ccc(F)cc3)c2O[C@H]1CN(C)C(=O)Nc1ccc(C(F)(F)F)cc1,AC50,Paired box protein Pax-8,13.1 µM (active)
N#C[C@@H]1[C@H](c2ccccc2-c2cccc(F)c2)[C@H](CO)N1C(=O)C1CC1,AC50,[4],3.48 µM (active)
Oc1ccc(C[C@H]2CN([C@@H](Cc3ccc(O)cc3)CN3CCC[C@@H]3CN3C(=S)NC[C@@H]3Cc3ccccc3)C(=S)N2CC2CCCCCC2)cc1,AC50,Paired box protein Pax-8,9.27 µM (active)
Fc1ccc(CSc2nc3ccccc3[nH]2)c2ccccc12,IC50,[5],2.61 µM (not active)
same,AC50,[10],5.37 µM (active)
same,EC50,Streptokinase A,14.1 µM (active)
same,EC50,[7],8.67 µM (active)
same,EC50,Streptococcus,13.9 µM (active)
CCn1c(NCc2cc(Cl)ccc2O)nc2ccccc21,CC50,[9],44.7 µM (active)
C=CCn1c(N2C(=O)CC(Cc3ccccc3)C2=O)nc2ccccc21 (stereo unspecified),EC50,Streptokinase A,> 150 µM (not active)
same,EC50,[7],9.02 µM (active)
same,EC50,Streptococcus,> 150 µM (not active)
CCC(=O)N1CCC2(CC1)CN(Cc1ccc3c(c1)OCO3)[C@@H](CO)c1c2c2ccc(OC)cc2n1C,AC50,[4],4.05 µM (active)
O=C(Nc1nccs1)c1cccc(N2C(=O)c3cccc4c([N+](=O)[O-])ccc(c34)C2=O)c1,EC50,[11],2.23 µM (active)
same,EC50,[12],3.77 µM (active)
same,EC50,[13],8.49 µM (active)
same,IC50,[14],1.45 µM (not active)
CCCCCCCC1=NN(c2ccc(S(=O)(=O)O)cc2)C(=O)C1N=O (stereo unspecified),IC50,Genome polyprotein,27.4 µM (active)
COCC#Cc1ccc(CC[C@H]2O[C@H]3CC[C@@H](CO)O[C@H]3C[C@@H]2n2cc(C3CC3)nn2)cc1,AC50,[4],5.82 µM (active)
CCCCSc1nnc(-c2ccc(C)cc2)c2ccccc12,IC50,[5],5.25 µM (not active)
O=C(C[C@H]1C[C@@H]2c3cc(NC(=O)C4CCOCC4)ccc3O[C@@H]2[C@H](CO)O1)NCc1ccccc1,AC50,[1],2.09 µM (active)
CSc1ccc(CN(C)CC(=O)Nc2c(F)cccc2F)cc1,IC50,[5],2.25 µM (not active)
COc1cc(C(=O)NS(=O)(=O)c2ccccc2C)ccc1Cc1cn(C)c2ccc(NC(=O)OC3CCCC3)cc12 [ZAFIRLUKAST],EC50,Streptokinase A,> 50 µM (not active)
same,EC50,[7],0.936 µM (active)
same,EC50,Streptococcus,> 50 µM (not active)
COc1cc(C(=O)OCC(=O)c2c(N)n(C)c(=O)n(C)c2=O)ccc1OCCC(C)C,EC50,Streptokinase A,> 150 µM (not active)
same,EC50,[7],12.7 µM (active)
same,EC50,Streptococcus,> 150 µM (not active)
COC(=O)C(NC(=O)c1ccccc1C)(Nc1ncc(S(=O)(=O)c2ccc([N+](=O)[O-])cc2)s1)C(F)(F)F (stereo unspecified),CC50,[9],12.4 µM (active)
OC[C@@H]1CC[C@@H]2O[C@H](CCc3ccc(-c4ccc(F)cc4)cc3)[C@H](n3cc(C4CC4)nn3)C[C@@H]2O1,AC50,[4],7.67 µM (active)
O=C(O)/C(CC(=O)c1ccc(Cl)cc1)=N/Nc1ccc([N+](=O)[O-])cc1[N+](=O)[O-],IC50,Genome polyprotein,12.5 µM (active)
COc1ccc(C(C2C(=O)CC(C)(C)CC2=O)C2C(=O)CC(C)(C)CC2=O)cc1CO,IC50,Genome polyprotein,45.8 µM (active)
CC(C)(C)C1CC=C2C(C#N)=C(N)C(C#N)(C#N)C(c3cccs3)C2C1 (stereo unspecified),EC50,Streptokinase A,25.7 µM (active)
same,EC50,[7],14.9 µM (active)
same,EC50,Streptococcus,> 150 µM (not active)
Cc1cc2ccccc2n1CCNC(=O)COc1ccc2ccccc2c1,CC50,[9],21.4 µM (active)
Cc1ccnn2c(-c3ccccc3)c3c(=O)n(C)c(=O)n(C)c3c12,EC50,Streptokinase A,> 150 µM (not active)
same,EC50,[7],> 150 µM (not active)
same,EC50,Streptococcus,> 150 µM (not active)
Cc1ccccc1N=C(S)N(CCc1c(C)[nH]c2ccc(F)cc12)Cc1cccnc1,IC50,[5],> 50 µM (not active)
CCOC(=O)N1CCc2c(sc3c2c(=O)n(Cc2ccccc2)c(=O)n3CC(=O)NCCOC)C1,IC50,[5],7.05 µM (not active)
